In publication PMC5218480 (PLoS ONE, 2017):

System: MV-4-11 cells
Test: Gene expression microarray analysis (Affymetrix PrimeView) and GSEA
Type: cell-based, human
Parameters: RFU PODN (11730768_x_at) / Fold change /veh PODN (11730768_x_at) / RFU LINC00158 (11744669_a_at) / Fold change /veh LINC00158 (11744669_a_at) / RFU DUSP10 (11751237_a_at) / Fold change /veh DUSP10 (11751237_a_at) / RFU ID3 (11757404_x_at) / Fold change /veh ID3 (11757404_x_at) / RFU PLEKHG5 (11737974_s_at) / Fold change /veh PLEKHG5 (11737974_s_at) / RFU LRRC4B (11730491_at) / Fold change /veh LRRC4B (11730491_at) / RFU GIMAP4 (11747438_a_at) / Fold change /veh GIMAP4 (11747438_a_at) / RFU KRT8 (11758183_x_at) / Fold change /veh KRT8 (11758183_x_at) / RFU CNN1 (11734310_a_at) / Fold change /veh CNN1 (11734310_a_at) / RFU VPS37D (11726825_at) / Fold change /veh VPS37D (11726825_at) / RFU C10orf10 (11716522_x_at) / Fold change /veh C10orf10 (11716522_x_at) / RFU KIR2DL2 /// KIR2DL4 /// KIR2DL5A /// KIR2DL5B /// KIR2DS1 /// KIR2DS2 /// KIR2DS3 /// KIR2DS4 /// KIR3DL3 /// KIR3DL3 /// KIR3DS1 (11738374_at) / Fold change /veh KIR2DL2 /// KIR2DL4 /// KIR2DL5A /// KIR2DL5B /// KIR2DS1 /// KIR2DS2 /// KIR2DS3 /// KIR2DS4 /// KIR3DL3 /// KIR3DL3 /// KIR3DS1 (11738374_at) / RFU C1QL1 (11718748_at) / Fold change /veh C1QL1 (11718748_at) / RFU TMPRSS4 (11747572_a_at) / Fold change /veh TMPRSS4 (11747572_a_at) / RFU HAMP (11756126_x_at) / Fold change /veh HAMP (11756126_x_at) / RFU RNFT2 (11725882_a_at) / Fold change /veh RNFT2 (11725882_a_at) / RFU NR4A2 (11747474_a_at) / Fold change /veh NR4A2 (11747474_a_at) / RFU ABCC12 (11746883_a_at) / Fold change /veh ABCC12 (11746883_a_at) / RFU TMEM136 (11760407_x_at) / Fold change /veh TMEM136 (11760407_x_at) / RFU CLDN22 /// WWC2 (11732394_at) / Fold change /veh CLDN22 /// WWC2 (11732394_at) / RFU HLA-DPB1 (11760878_x_at) / Fold change /veh HLA-DPB1 (11760878_x_at) / RFU SPINT1 (11716480_a_at) / Fold change /veh SPINT1 (11716480_a_at) / RFU GAP43 (11754022_s_at) / Fold change /veh GAP43 (11754022_s_at) / RFU A4GNT (11735810_at) / Fold change /veh A4GNT (11735810_at) / RFU PRB3 (11715151_x_at) / Fold change /veh PRB3 (11715151_x_at) / RFU TUBB4B (11761932_at) / Fold change /veh TUBB4B (11761932_at) / RFU CAPN14 (11732068_a_at) / Fold change /veh CAPN14 (11732068_a_at) / RFU TMCC2 (11721928_a_at) / Fold change /veh TMCC2 (11721928_a_at) / RFU IRGQ (11745062_a_at) / Fold change /veh IRGQ (11745062_a_at) / RFU FAM174B (11720279_a_at) / Fold change /veh FAM174B (11720279_a_at) / RFU TMPRSS4 (11748680_a_at) / Fold change /veh TMPRSS4 (11748680_a_at) / RFU FAM212B (11763350_a_at) / Fold change /veh FAM212B (11763350_a_at) / RFU PLEKHG5 (11743358_a_at) / Fold change /veh PLEKHG5 (11743358_a_at) / RFU ZSCAN30 (11745921_a_at) / Fold change /veh ZSCAN30 (11745921_a_at) / RFU CMKLR1 (11741424_a_at) / Fold change /veh CMKLR1 (11741424_a_at) / RFU LOC101060620 /// MAPK8IP1 (11723275_at) / Fold change /veh LOC101060620 /// MAPK8IP1 (11723275_at) / RFU SPTSSB (11747773_x_at) / Fold change /veh SPTSSB (11747773_x_at) / RFU PRSS12 (11739890_at) / Fold change /veh PRSS12 (11739890_at) / RFU BIN1 (11741810_x_at) / Fold change /veh BIN1 (11741810_x_at) / RFU WNT11 (11732464_a_at) / Fold change /veh WNT11 (11732464_a_at) / RFU C10orf10 (11716521_a_at) / Fold change /veh C10orf10 (11716521_a_at) / RFU C5orf56 (11738089_at) / Fold change /veh C5orf56 (11738089_at) / RFU CYB561 (11721691_x_at) / Fold change /veh CYB561 (11721691_x_at) / RFU ANKRD19P (11752326_a_at) / Fold change /veh ANKRD19P (11752326_a_at) / RFU OR2T12 /// OR2T33 /// OR2T8 (11738714_s_at) / Fold change /veh OR2T12 /// OR2T33 /// OR2T8 (11738714_s_at) / RFU VCAN (11748164_a_at) / Fold change /veh VCAN (11748164_a_at) / RFU JSRP1 (11732532_at) / Fold change /veh JSRP1 (11732532_at) / RFU KRTAP10-11 (11738290_x_at) / Fold change /veh KRTAP10-11 (11738290_x_at) / RFU MYO3A (11730013_a_at) / Fold change /veh MYO3A (11730013_a_at) / RFU EBF3 (11725865_a_at) / Fold change /veh EBF3 (11725865_a_at) / RFU CAMK2N1 (11719241_x_at) / Fold change /veh CAMK2N1 (11719241_x_at) / RFU C5orf56 (11738088_a_at) / Fold change /veh C5orf56 (11738088_a_at) / RFU OLFML3 (11715873_a_at) / Fold change /veh OLFML3 (11715873_a_at) / RFU LOC100653217 /// NTM (11731650_a_at) / Fold change /veh LOC100653217 /// NTM (11731650_a_at) / RFU MAPK11 (11762145_a_at) / Fold change /veh MAPK11 (11762145_a_at) / RFU FIZ1 (11724087_x_at) / Fold change /veh FIZ1 (11724087_x_at) / RFU OASL (11726364_x_at) / Fold change /veh OASL (11726364_x_at) / RFU SOX15 (11748057_x_at) / Fold change /veh SOX15 (11748057_x_at) / RFU CD79A (11719716_a_at) / Fold change /veh CD79A (11719716_a_at) / RFU HIST1H1D (11736915_at) / Fold change /veh HIST1H1D (11736915_at) / RFU CASKIN2 (11723855_a_at) / Fold change /veh CASKIN2 (11723855_a_at) / RFU LOC730098 (11760151_x_at) / Fold change /veh LOC730098 (11760151_x_at) / RFU OR4N2 (11742367_at) / Fold change /veh OR4N2 (11742367_at) / RFU PRRT2 (11749266_a_at) / Fold change /veh PRRT2 (11749266_a_at) / RFU SNX32 (11753110_a_at) / Fold change /veh SNX32 (11753110_a_at) / RFU CDHR5 (11726645_a_at) / Fold change /veh CDHR5 (11726645_a_at) / RFU RCAN1 (11760418_a_at) / Fold change /veh RCAN1 (11760418_a_at) / RFU FAM167A (11723789_a_at) / Fold change /veh FAM167A (11723789_a_at) / RFU FAM26E (11764081_at) / Fold change /veh FAM26E (11764081_at) / RFU ISYNA1 (11749810_s_at) / Fold change /veh ISYNA1 (11749810_s_at) / RFU ACY1 (11761880_at) / Fold change /veh ACY1 (11761880_at) / RFU 11764098_at / Fold change /veh 11764098_at / RFU SAMD14 (11745864_x_at) / Fold change /veh SAMD14 (11745864_x_at) / RFU NPB (11741838_a_at) / Fold change /veh NPB (11741838_a_at) / RFU TMPRSS6 (11731388_a_at) / Fold change /veh TMPRSS6 (11731388_a_at) / RFU KRTAP10-2 (11738614_at) / Fold change /veh KRTAP10-2 (11738614_at) / RFU ARHGAP8 /// PRR5-ARHGAP8 (11727945_x_at) / Fold change /veh ARHGAP8 /// PRR5-ARHGAP8 (11727945_x_at) / RFU KRTAP5-7 /// NADSYN1 (11734609_at) / Fold change /veh KRTAP5-7 /// NADSYN1 (11734609_at) / RFU RASL12 (11751679_a_at) / Fold change /veh RASL12 (11751679_a_at) / RFU CDKN2B (11736163_a_at) / Fold change /veh CDKN2B (11736163_a_at) / RFU PRF1 (11729649_at) / Fold change /veh PRF1 (11729649_at) / RFU, ZNF638 /// ZNF638-IT1 / Fold change vs veh, ZNF638 /// ZNF638-IT1 / RFU, PANK3 / Fold change vs veh, PANK3 / RFU, SH3YL1 / Fold change vs veh, SH3YL1 / RFU, ZEB2 / Fold change vs veh, ZEB2 / RFU, NRIP1 / Fold change vs veh, NRIP1 / RFU, PTTG1IP / Fold change vs veh, PTTG1IP / RFU, CAPN2 / Fold change vs veh, CAPN2 / RFU, MED14 / Fold change vs veh, MED14 / RFU, SNORA58 / Fold change vs veh, SNORA58 / RFU, C1orf63 / Fold change vs veh, C1orf63 / RFU, LRRFIP1 / Fold change vs veh, LRRFIP1 / RFU, NDUFAF7 / Fold change vs veh, NDUFAF7 / RFU, SLC12A2 / Fold change vs veh, SLC12A2 / RFU, IBTK / Fold change vs veh, IBTK / RFU, ESF1 / Fold change vs veh, ESF1 / Fold change vs veh, TMEM50B / RFU, TAOK1 / Fold change vs veh, TAOK1 / RFU, ACBD3 / Fold change vs veh, ACBD3 / RFU, TMA16 / Fold change vs veh, TMA16 / RFU, RWDD3 / Fold change vs veh, RWDD3 / RFU, BCAT1 / Fold change vs veh, BCAT1 / RFU, EDEM3 / Fold change vs veh, EDEM3 / RFU, TMEM33 / Fold change vs veh, TMEM33 / RFU, WDR75 / Fold change vs veh, WDR75 / RFU, AHCTF1 / Fold change vs veh, AHCTF1 / RFU, TFRC / Fold change vs veh, TFRC / RFU, ZDHHC17 / Fold change vs veh, ZDHHC17 / RFU, NOM1 / Fold change vs veh, NOM1 / RFU, ARL8B / Fold change vs veh, ARL8B / RFU, ZBTB11 / Fold change vs veh, ZBTB11 / RFU, TAMM41 / Fold change vs veh, TAMM41 / RFU, KIAA1704 /// LOC100996395 / Fold change vs veh, KIAA1704 /// LOC100996395 / RFU, ING1 / Fold change vs veh, ING1 / RFU, TRMT61B / Fold change vs veh, TRMT61B / RFU, FUBP3 / Fold change vs veh, FUBP3 / RFU, TP53 / Fold change vs veh, TP53 / RFU, TNKS2 / Fold change vs veh, TNKS2 / RFU, ZFP14 / Fold change vs veh, ZFP14 / RFU, ACTR2 / Fold change vs veh, ACTR2 / RFU, PPP3R1 / Fold change vs veh, PPP3R1 / RFU, PIK3R1 / Fold change vs veh, PIK3R1 / RFU, HNRNPA1 / Fold change vs veh, HNRNPA1 / RFU, RNF170 / Fold change vs veh, RNF170 / RFU, ZNF28 / Fold change vs veh, ZNF28 / RFU, RNGTT / Fold change vs veh, RNGTT / RFU, OGT / Fold change vs veh, OGT / RFU, BRD1 / Fold change vs veh, BRD1 / RFU, MARS / Fold change vs veh, MARS / RFU, ZNF655 / Fold change vs veh, ZNF655 / RFU, FAHD1 / Fold change vs veh, FAHD1 / RFU, BDP1 / Fold change vs veh, BDP1 / RFU, LRRCC1 / Fold change vs veh, LRRCC1 / RFU, ARID1A / Fold change vs veh, ARID1A / RFU, ZNF146 / Fold change vs veh, ZNF146 / RFU, ZNF330 / Fold change vs veh, ZNF330 / RFU, GPN3 / Fold change vs veh, GPN3 / RFU, C9orf123 / Fold change vs veh, C9orf123 / RFU, N4BP2L2 / Fold change vs veh, N4BP2L2 / RFU, ARFIP1 / Fold change vs veh, ARFIP1 / RFU, FAM179B / Fold change vs veh, FAM179B / RFU, BCL10 / Fold change vs veh, BCL10 / RFU, UHRF1BP1L / Fold change vs veh, UHRF1BP1L / RFU, BET1 / Fold change vs veh, BET1 / RFU, CNOT2 / Fold change vs veh, CNOT2 / RFU, ZNF268 / Fold change vs veh, ZNF268 / Fold change vs veh, ZNF507 / RFU, DGCR2 / Fold change vs veh, DGCR2 / RFU, WDSUB1 / Fold change vs veh, WDSUB1 / Fold change vs veh, HSP90B1 /// MIR3652 / RFU, ADSS / Fold change vs veh, ADSS / RFU, GK / Fold change vs veh, GK / RFU, ZNF148 / Fold change vs veh, ZNF148 / RFU, TAF9 / Fold change vs veh, TAF9 / RFU, SLC1A5 / Fold change vs veh, SLC1A5 / RFU, SLMO2 / Fold change vs veh, SLMO2 / RFU, ABCC4 / Fold change vs veh, ABCC4 / RFU, LOC101060439 /// RAP1B / Fold change vs veh, LOC101060439 /// RAP1B / RFU, RFX7 / Fold change vs veh, RFX7 / RFU, GTPBP10 / Fold change vs veh, GTPBP10 / RFU, CNEP1R1 / Fold change vs veh, CNEP1R1 / RFU, BIVM-ERCC5 /// ERCC5 / Fold change vs veh, BIVM-ERCC5 /// ERCC5 / RFU, ILF3 / Fold change vs veh, ILF3 / RFU 11762660_at / Fold change /veh 11762660_at / RFU VCAN (11757783_s_at) / Fold change /veh VCAN (11757783_s_at) / RFU DDX43 (11728927_at) / Fold change /veh DDX43 (11728927_at) / RFU KRT8 (11758188_x_at) / Fold change /veh KRT8 (11758188_x_at) / RFU NKD1 (11759106_at) / Fold change /veh NKD1 (11759106_at) / RFU SRD5A1 (11742802_a_at) / Fold change /veh SRD5A1 (11742802_a_at) / RFU TPSAB1 /// TPSB2 (11721975_s_at) / Fold change /veh TPSAB1 /// TPSB2 (11721975_s_at) / RFU GSTM3 (11746129_a_at) / Fold change /veh GSTM3 (11746129_a_at) / RFU IL23R (11737362_x_at) / Fold change /veh IL23R (11737362_x_at) / RFU TMEM51 (11727254_a_at) / Fold change /veh TMEM51 (11727254_a_at) / RFU PIWIL2 (11732686_x_at) / Fold change /veh PIWIL2 (11732686_x_at) / RFU ORM1 (11744905_x_at) / Fold change /veh ORM1 (11744905_x_at) / RFU CCDC152 (11743942_at) / Fold change /veh CCDC152 (11743942_at) / RFU ECM1 (11717891_a_at) / Fold change /veh ECM1 (11717891_a_at) / RFU IL23R (11748794_a_at) / Fold change /veh IL23R (11748794_a_at) / RFU TNFAIP8L3 (11732012_x_at) / Fold change /veh TNFAIP8L3 (11732012_x_at) / RFU MBOAT4 (11741988_at) / Fold change /veh MBOAT4 (11741988_at) / RFU 11764193_at / Fold change /veh 11764193_at / RFU TMEM53 (11763286_at) / Fold change /veh TMEM53 (11763286_at) / RFU MAGEB2 (11727129_at) / Fold change /veh MAGEB2 (11727129_at) / RFU TMEM200A (11744735_a_at) / Fold change /veh TMEM200A (11744735_a_at) / RFU CCDC152 (11751479_a_at) / Fold change /veh CCDC152 (11751479_a_at) / RFU FAM211A (11726209_a_at) / Fold change /veh FAM211A (11726209_a_at) / RFU RGS16 (11746705_a_at) / Fold change /veh RGS16 (11746705_a_at) / RFU VCAN (11755009_s_at) / Fold change /veh VCAN (11755009_s_at) / RFU RHOB (11743442_s_at) / Fold change /veh RHOB (11743442_s_at) / RFU RGS16 (11720943_a_at) / Fold change /veh RGS16 (11720943_a_at) / RFU RGS16 (11720944_at) / Fold change /veh RGS16 (11720944_at) / RFU, VPS4B / Fold change vs veh, VPS4B / RFU, CREB1 / Fold change vs veh, CREB1 / RFU, DNAJC13 / Fold change vs veh, DNAJC13 / RFU, GNAQ / Fold change vs veh, GNAQ / RFU, CDK5R1 / Fold change vs veh, CDK5R1 / RFU, ZRANB3 / Fold change vs veh, ZRANB3 / RFU, CUL4A / Fold change vs veh, CUL4A / RFU, CCNY / Fold change vs veh, CCNY / RFU, UFL1 / Fold change vs veh, UFL1 / RFU, COG3 / Fold change vs veh, COG3 / RFU, DIAPH2 / Fold change vs veh, DIAPH2 / RFU, SKA2 / Fold change vs veh, SKA2 / RFU, AFF3 / Fold change vs veh, AFF3 / RFU, LMF1 / Fold change vs veh, LMF1 / RFU, IPO11 / Fold change vs veh, IPO11 / RFU, DFFB / Fold change vs veh, DFFB / RFU, FOXP1 / Fold change vs veh, FOXP1 / RFU, CARD8 / Fold change vs veh, CARD8 / RFU, STRN3 / Fold change vs veh, STRN3 / RFU, ADK / Fold change vs veh, ADK / RFU, RASSF2 / Fold change vs veh, RASSF2 / RFU, WIPF1 / Fold change vs veh, WIPF1 / RFU, LARP1B / Fold change vs veh, LARP1B / RFU, RASA1 / Fold change vs veh, RASA1 / RFU, RB1 / Fold change vs veh, RB1 / RFU, PPFIA1 / Fold change vs veh, PPFIA1 / RFU, MAT2A / Fold change vs veh, MAT2A / RFU, CCT5 / Fold change vs veh, CCT5 / RFU, WDR92 / Fold change vs veh, WDR92 / RFU, CUX1 / Fold change vs veh, CUX1 / RFU, TTC7A / Fold change vs veh, TTC7A / RFU, TMEM135 / Fold change vs veh, TMEM135 / RFU, DEPTOR / Fold change vs veh, DEPTOR / RFU, CPM / Fold change vs veh, CPM / RFU, DNAJB6 / Fold change vs veh, DNAJB6 / RFU, CACNA2D3 / Fold change vs veh, CACNA2D3 / RFU, DTX4 / Fold change vs veh, DTX4 / RFU, TFCP2 / Fold change vs veh, TFCP2 / RFU, GMCL1 /// GMCL1P1 / Fold change vs veh, GMCL1 /// GMCL1P1 / RFU, AEBP2 / Fold change vs veh, AEBP2 / RFU, SNHG1 /// SNORD22 /// SNORD25 /// SNORD26 /// SNORD27 /// SNORD28 /// SNORD29 /// SNORD31 / Fold change vs veh, SNHG1 /// SNORD22 /// SNORD25 /// SNORD26 /// SNORD27 /// SNORD28 /// SNORD29 /// SNORD31 / Fold change (Aza/veh), C12orf56 (ProbeSet 11735607_a_at) / Fold change (ACY-1035/veh), C12orf56 (ProbeSet 11735607_a_at) / Fold change (Aza/veh), FGFR1OP (ProbeSet 11751329_s_at) / Fold change (ACY-1035/veh), FGFR1OP (ProbeSet 11751329_s_at) / Fold change (Aza/veh), VPS36 (ProbeSet 11739960_a_at) / Fold change (ACY-1035/veh), VPS36 (ProbeSet 11739960_a_at) / RFU SYPL1 (11715823_x_at) / Fold change /veh SYPL1 (11715823_x_at) / RFU IGFBP7 (11715501_s_at) / Fold change /veh IGFBP7 (11715501_s_at) / RFU REEP3 (11722064_at) / Fold change /veh REEP3 (11722064_at) / RFU IGLL1 (11728026_x_at) / Fold change /veh IGLL1 (11728026_x_at): dose or concentration left out as unconfirmed
Details: ProbeSet 11720270_a_at; LIST B

SMILES: Nc1ccc(-c2cccs2)cc1NC(=O)c1ccc2c(c1)cc(C1CC1)n2CCN1CCOCC1 [ACY-1035]
- RFU, IBTK: 373.26 RFU
